Experimental data reported in PMC6201879, “N-substituted phenylbenzamides of the niclosamide chemotype attenuate obesity related changes in high fat diet fed mice” (PLoS ONE, 2018).
pIC50: −log10 of the molar value. Several values for one entry are separate records, joined by “and”; a condition that tells them apart may be missing. Equal entries are not always repeated. Entries after “also recorded” stand apart in the source; their conditions may differ. Where two headings read alike, the source gives them in different places.

Columns and labels:
[1] = test system: Salmonella typhimurium TA98; experiment: Ames assay, strain TA98; details: Positive Control chemical; concentration not given; without S9
PH5CH8 liver cells = experiment: High-throughput hepatic de novo lipogenesis (DNL) assay, high content imaging of steatotic phenotype; format: cell-based, human; details: for pIC50: read-out: IC50; for IC50: PH5CH8 liver cells, 10-point dose response between 1μM and 1.9nM, read-out: IC50 (uM), inhibition of steatotic phenotype in DNL assay
[2] = test system: HEK293 cells stably transduced with the human OCT3 transporter; experiment: Cellular oxygen consumption rate (OCR), MitoXpress Xtra; format: cell-based; details: HEK293 cells expressing human OCT3; for change in respiration / oxygen consumption rate (OCR): compared to DMSO control, 2 hours; for concentration dependence of OCR change: four concentrations
Procedure: Oxygen consumption rate experiments were performed by ZenBio, Inc (RTP, NC). HEK293 cells stably transduced with the human OCT3 transporter were plated in black-walled microclear plates (Greiner-BioOne) at 60,000 cells per well in growth medium. Cells were incubated overnight to allow attachment before growth medium was removed and replaced with 150μL of assay medium containing compound dilutions. Four concentrations of each compound were prepared and transferred to the empty wells. Control wells contained assay medium only or assay medium containing […] (FCCP) at 1μM. Ten μL of MitoXpress Xtra reagent was added to each test well and 100μL of pre-warmed mineral oil was overlaid in each well to create a seal. The plates were immediately read on a FLUOstar Omega (BMG) using dual read Time Resolved Fluorescence (TR-F) for 2 hours, with measurements taken every 2 minutes using 340nm and 650nm as excitation and emission wavelengths respectively. For lifetime analysis, two measurements per well were taken: 1) delay of 30μs, with a window of 30μs; and 2) delay of 70μs with a window of 30μs. Background TRF values were subtracted from all readings. A ratiometric analysis was performed to determine changes in the Lifetime fluorescence signal: Lifetime (μs)[T] = (D2-D1)/ln(W1/W2), where D is delay; W is fluorescence window value at each time point. Lifetime slopes were calculated using each Lifetime measurement over time. Data are presented as mean ± standard error (SE). The differences between the control (DMSO) and compound treated wells were analyzed using the Student’s t-test. A value of p≤0.05 was considered statistically significant. […]

[3] = test system: Phosphorylated AMPK (Thr-172); experiment: High-throughput phosphorylated AMPK (Thr-172) TR-FRET assay in HepG2 cells; format: cell-based, human; details: HepG2 TR-FRET dose response between 0.625 and 10 μM, 4 hours; also Western blot
Procedure: Phosphorylated AMPK (Thr-172) TR-FRET Assay Kit was purchased from CisBio (Bedford MA). HepG2 [HB-8065] cells were trypsinized, harvested and counted using Countess II FL automated cell counter (Thermo Fisher Scientific). Cells were then seeded in Poly-D-Lysine coated 96-well black optical plates at a concentration of 10,000 cells per well in 50μL growth medium. After 24-hours, the media was removed and replaced with 50μL of fresh growth media containing compounds. Five concentrations of each compound were prepared, ranging from 10 to 0.625 μM and applied to columns 2–11 of the cell plate. Control wells contained DMSO (column 1-minimum response control) or 500199 (column 12-maximum response control). The final DMSO concentration was 0.45%. Cells were cultured for 4 hours before cells were lysed in 50μL of lysis buffer for 30 minutes at room temperature according to assays protocol. Following lysis, 16μL of lysate was transferred to white 384 well small volume assay plate and 4μL of antibody dyes were added per assay protocol.
Following overnight incubation, quantitation was performed on a PHERAstar (BMG), using the HTRF protocol with an excitation wavelength of 337nm and emission wavelengths of 665nm and 620nm. The ratio between emission spectra (665/620) was assessed for each well individually and averaged for triplicate samples. Data are presented as mean ratio ± SE. The differences between the control (DMSO) and the compound treated wells were analyzed using two-way ANOVA and Dunnett’s post hoc test. A value of p<0.05 was considered to be significant.
Fig 5 Validation of AMPK pathway activation by phenylbenzamide derivatives in HepG2 cells. A) Cells were seeded at 10,000 cells per well 24 hours prior to treating cells with indicated concentration of compound or DMSO (CTL) for 4 hours. 16μL of cell lysate was incubated with HTRF phospho-AMPK detection reagents and fluorescence emission read at 665nm and 620nm using a PHERAstar platereader. The mean and standard deviation of the HTRF Ratio from three replicate wells is shown. The unstimulated (DMSO) and positive controls lysates are shown in green and red respectively.

[4] = test system: phospho-AMPK Thr-172 (p-AMPK); experiment: Western blot of phospho-AMPK Thr-172 in HEK293T cells; format: cell-based, human; details: 1 and 10μM, negatives re-screened at 5 and 20 μM, 3 hours
Procedure: AMPK is a metabolic sensor that maintains cellular energy supply. As validation of these changes in lipid metabolism and cellular respiration we evaluated phospho-AMPK Thr-172 (p-AMPK) levels by Western blot in HEK293 cells treated with the phenylbenzamide derivatives. Compounds were screened at 1 and 10μM using the known uncouplers niclosamide and FCCP as positive controls (Fig 4A). […] We concluded that compounds that had little effect on oxygen consumption rates also had little effect on phosphorylation of AMPK.

[5] = Metabolic stability in human liver microsomes; format: in vitro ADME
Procedure: (§1) Three experiments were performed with 1) 0.5mg/ml microsomes and 1mM NADPH, 2) 0.5mg/ml microsomes without NADPH and 3) 0.5mg/ml heat inactivated microsomes without NADPH in 100mM phosphate buffer, containing 5mM magnesium chloride. […] At the indicated time points, 50μl samples were removed and stopped by addition of 4 volumes of cold acetonitrile with internal standards, 100nM alprazolam, 200nM labetalol and 2μM ketoprofen. The samples were centrifuged at 3,220 g for 40 minutes and aliquots of 100μl were subsequently diluted with 100μl of ultra-pure water and analyzed by LC/MS/MS using a (Shimadzu corporation) LC system coupled to a Shimadzu Triple Quad 5500 mass spectrometer with an ESI interface. The LC system used a Waters XSelect HSS T3 C18, 2.5μm, 2.1 x 50 mm column eluted with one of two methods using mobile phases A (water, 0.1% formic acid) and B (acetonitrile, 0.1% formic acid). […] The Shimadzu Triple Quad 5500 MS was operated with the following parameters: Ion source: Turbo spray; Ionization mode: ESI; Scan type: MRM; Collision gas: 10 L/min; Curtain gas: 30 L/min; Nebulize gas: 50 L/min; Auxiliary gas: 50 L/min; Temperature: 500°C; Ionspray voltage: +5500 V (positive MRM). All experiments were performed in duplicate. Data were analyzed using Microsoft excel, and peak areas were determined from extracted ion chromatograms.

[6] = Metabolic stability in mouse liver microsomes; format: in vitro ADME; details: 60 min
Procedure: as §1

[7] = test system: Salmonella typhimurium TA1537; details: Positive Control chemical; concentration not given; without S9
[8] = test system: Salmonella typhimurium TA1535; details: Positive Control chemical; concentration not given; without S9
[9] = test system: Salmonella typhimurium TA100; details: Positive Control chemical; concentration not given; without S9
[10] = S1 Table, SAR for N-Substituted Phenylbenzamides
[11] = Homo sapiens, S1 Table. SAR for N-Substituted Phenylbenzamides
[12] = S1 Table. SAR for N-Substituted Phenylbenzamides
[13] = Homo sapiens, S1 Table, SAR for N-Substituted Phenylbenzamides
[14] = 0.5mg/ml microsomes and 1mM NADPH
[15] = 0.5mg/ml microsomes without NADPH
[16] = heat inactivated microsomes without NADPH

Q: With `O=[N+]([O-])c1ccc2c(c1)Cc1ccccc1-2` [Compound 2-NF, 2-nitrofluorene, reference compound] as the molecule, how does the “Mean Revertant Colony Counts TA98 S9-” value [1] read?
A: 210.0 and 258.7

Q: For `COC(=O)c1ccc(NC(=O)c2cc(Cl)ccc2O)c(Cl)c1` [Compound 500189, Methyl 3-chloro-4-[(5-chloro-2-hydroxybenzene)amido]benzoate], which Active/Inactive (PH5CH8 liver cells; [10]) is on record?
A: Inactive

Q: Which results are given for `COC(=O)c1ccc(NC(=O)c2cc(C)ccc2O)c(Cl)c1` [Compound 500828, Methyl 3-chloro-4-[(2-hydroxy-5-methylbenzene)amido]benzoate]?
A: Active/Inactive (PH5CH8 liver cells; [10]): Active; pIC50 (PH5CH8 liver cells; [10]): 5.77

Q: Which “change in respiration / oxygen consumption rate (OCR)” value [2] does the source give for `O=C(Nc1ccc(Br)cc1Cl)c1cc(Cl)ccc1O` [Compound 500832, N-(4-Bromo-2-chlorophenyl)-5-chloro-2-hydroxybenzamide] here?
A: significant changes

Q: And the “concentration dependence of OCR change” value [2]?
A: only significantly elevated at 1μM

Q: And the IC50 (PH5CH8 liver cells; Homo sapiens)?
A: 0.08 µM

Q: And the pIC50 (PH5CH8 liver cells; [11])?
A: 7.69

Q: And the Active/Inactive (PH5CH8 liver cells; [12])?
A: Active

Q: What about the “phosphorylation of AMPK (Figs 5 and 4D)” value [3] of the same molecule?
A: stimulated phosphorylation of AMPK

Q: For `N#Cc1ccc(NC(=O)c2cc(Cl)ccc2O)c(Cl)c1` [Compound 500833, 5-Chloro-N-(2-chloro-4-cyanophenyl)-2-hydroxybenzamide], which “change in respiration / oxygen consumption rate (OCR)” value [2] is on record?
A: significant changes

Q: And the “concentration dependence of OCR change” value [2]?
A: only significantly elevated at 1μM

Q: What about the IC50 (PH5CH8 liver cells; Homo sapiens) of the same molecule?
A: 0.04 µM

Q: And the pIC50 (PH5CH8 liver cells; [11])?
A: 7.37

Q: What about the Active/Inactive (PH5CH8 liver cells; [12]) of the same molecule?
A: Active

Q: And the “phosphorylation of AMPK (Figs 5 and 4D)” value [3]?
A: stimulated phosphorylation of AMPK

Q: Which Active/Inactive (PH5CH8 liver cells; [10]) does the source give for `COC(=O)c1ccc(NC(=O)c2cc(C(F)(F)F)ccc2O)c(Cl)c1` [Compound 500844, Methyl 3-chloro-4-{[2-hydroxy-5-(trifluoromethyl)benzene]amido}benzoate] here?
A: Active

Q: What about the pIC50 (PH5CH8 liver cells; [10]) of the same molecule?
A: 7.15

Q: For `COC(=O)c1ccc(NC(=O)c2cccc(C(C)(C)C)c2O)c(Cl)c1` [Compound 600489, Methyl 4-(3-tert-butyl-2-hydroxybenzamido)-3-chlorobenzoate], which “change in respiration / oxygen consumption rate (OCR)” value [2] is on record?
A: no change in respiration; also recorded: no effect on oxygen consumption rate

Q: And the IC50 (PH5CH8 liver cells; Homo sapiens)?
A: 0.01 µM

Q: And the pIC50 (PH5CH8 liver cells; [13])?
A: 7.85

Q: What about the Active/Inactive (PH5CH8 liver cells; [10]) of the same molecule?
A: Active

Q: And the “phosphorylation of AMPK (p-AMPK Thr-172) by Western blot” value [4]?
A: stimulated phosphorylation of AMPK only at the highest concentration

Q: And the “Remaining Percentage of 60 min (%), Human, Tested Sample” value [5, 14]?
A: 3.1%

Q: What about the “Remaining Percentage of 60 min (%), Human, Negative Control” value [5, 15] of the same molecule?
A: 3.8%

Q: And the “microsomal stability” value ([5]; HLM and MLM, 60 min)?
A: completely degraded

Q: And the “Remaining Percentage of 60 min (%), Human, Heat-inactivated Control” value [5, 16]?
A: 66.6%

Q: What about the “Remaining Percentage of 60 min (%), Mouse, Tested Sample” value [6, 14] of the same molecule?
A: 2.7%

Q: What about the “Remaining Percentage of 60 min (%), Mouse, Negative Control” value [6, 15] of the same molecule?
A: 4.1%

Q: And the “Remaining Percentage of 60 min (%), Mouse, Heat-inactivated Control” value [6, 16]?
A: 57.6%

Q: With `COC(=O)c1ccc(NC(=O)c2cc(C(F)(F)F)ccc2O)c(Br)c1` [Compound 600653, Methyl 4-(2-hydroxy-5-[trifluoromethyl]benzamido)-3-bromobenzoate] as the molecule, how does the “change in respiration / oxygen consumption rate (OCR)” value [2] read?
A: significant changes

Q: What about the “concentration dependence of OCR change” value [2] of the same molecule?
A: dose dependent increase in OCR

Q: And the IC50 (PH5CH8 liver cells; Homo sapiens)?
A: 0.27 µM

Q: And the pIC50 (PH5CH8 liver cells; [13])?
A: 6.57

Q: What about the Active/Inactive (PH5CH8 liver cells; [10]) of the same molecule?
A: Active

Q: And the “phosphorylation of AMPK (Figs 5 and 4D)” value [3]?
A: stimulated phosphorylation of AMPK

Q: For `COC(=O)c1ccc(NC(=O)c2cc(C(F)(F)F)ccc2O)c(C)c1` [Compound 600655, Methyl 4-(2-hydroxy-5-[trifluoromethyl]benzamido)-3-methylbenzoate], which “change in respiration / oxygen consumption rate (OCR)” value [2] is on record?
A: significant changes

Q: And the “concentration dependence of OCR change” value [2]?
A: dose dependent increase in OCR

Q: What about the IC50 (PH5CH8 liver cells; Homo sapiens) of the same molecule?
A: 0.03 µM

Q: And the pIC50 (PH5CH8 liver cells; [13])?
A: 9.60

Q: What about the Active/Inactive (PH5CH8 liver cells; [10]) of the same molecule?
A: Active

Q: And the “phosphorylation of AMPK (Figs 5 and 4D)” value [3]?
A: stimulated phosphorylation of AMPK

Q: For `COc1ccc(O)c(C(=O)Nc2ccc(C(=O)O)cc2C)c1` [Compound 600657, 4-(2-Hydroxy-5-methoxybenzamido)-3-methylbenzoic Acid], which “change in respiration / oxygen consumption rate (OCR)” value [2] is on record?
A: no change in respiration; also recorded: did not appear to stimulate phosphorylation of AMPK or increase oxygen consumption rate

Q: What about the Active/Inactive (PH5CH8 liver cells; [10]) of the same molecule?
A: Active

Q: And the “phosphorylation of AMPK (p-AMPK Thr-172) by Western blot” value [4]?
A: no detectable changes in pAMPK levels

Q: Which “change in respiration / oxygen consumption rate (OCR)” value [2] does the source give for `N#CC(C#N)=NNc1ccc(OC(F)(F)F)cc1` [FCCP, carbonyl cyanide-p-trifluoromethoxyphenylhydrazone, reference compound] here?
A: increased OCR

Q: For `COc1ccc2nc3cc(Cl)ccc3c(NCCCNCCCl)c2c1` [ICR-191, reference compound], which “Mean Revertant Colony Counts TA-1537 S9-” value [7] is on record?
A: 72.3 and 73.0

Q: For `[N-]=[N+]=[N-].[Na+]` [SA, Sodium Azide, reference compound], which “Mean Revertant Colony Counts TA-1535 S9-” value [8] is on record?
A: 103.3

Q: And the “Mean Revertant Colony Counts TA-100 S9-” value [9]?
A: 133.7 and 120.0

Q: Which “reduced steatosis (steatotic phenotype in DNL assay)” value (PH5CH8 liver cells; PH5CH8, assay validation) does the source give for `CCC/C=C/C/C=C/C=C/C=N/NN=O` [Triacsin C, reference compound] here?
A: 92 ± 19%
